Values of other authors, collected in patent US8883408B2, “Tissue implants for implantation and methods of preparing the same” (CryoLife, Inc., priority 2010, dated 2014).

Tested on: sensitive bacteria
Settings: literature review

For `NCC[C@H](O)C(=O)N[C@@H]1C[C@H](N)[C@@H](O[C@H]2O[C@H](CN)[C@@H](O)[C@H](O)[C@H]2O)[C@H](O)[C@H]1O[C@H]1O[C@H](CO)[C@@H](O)[C@H](N)[C@H]1O` [amikacin], the “minimum inhibitory concentration against sensitive bacteria (MIC) range” value is listed as 0.125 to 32 µg/mL.
